Test results from article PMC11990108, “Anti-HIV Activity of Tigliane Derivatives from Euphorbia nicaeensis Roots” (Molecules, 2025).
Where two headings read alike, the source gives them in different places.

What was measured:
HIV-1 = test system: HIV-1; set-up: method as in PMID 32229336, PMID 21561135, PMID 33172265, PMID 34445872; details: other tiglianes from the literature; ref [25],[26],[27],[28],[29]; read-out: IC50 anti-HIV-1 activity; cited from earlier work
[1] = cellular toxicity in uninfected MT-4 cells (MTS method); type: cell-based; details: human
Experimental: (§1) The MT-4 cell line was a kind gift from Dr. L. Montagner (at that time at the Pasteur Institute; Paris, France). This cell line was cultured in RPMI medium (Thermo Fisher Scientific, Waltham, MA, USA) containing 10% fetal bovine serum (FBS; Thermo Fisher Scientific, Waltham, MA, USA) and 2 mM L-glutamine (Thermo Fisher Scientific, Waltham, MA, USA).
(§2) To determine the anti-HIV-activity of the compounds, MT-4 cells (5 × 10^4 cells) were treated with 5-fold dilutions of the compounds for 30 min at 37 °C, 5% CO2 in 96-well-plates. After 30 min, cells were infected with 100 TCID50 (tissue culture infective dose 50%) HIV-1 (NL4.3) or HIV-2 (ROD) virus stocks. After five days of incubation (37 °C, 5% CO2), the cytopathic effect was checked microscopically, and cell viability was evaluated using the MTS/PES-based CellTiter 96 Aqueous One Solution Cell Proliferation assay (Promega Madison, WI, USA). Absorbance at 490 nm was measured using the VersaMax ELISATM microplate reader (Molecular Devices) and analyzed with the SoftMax Pro software (Molecular Devices, Version 4.0, www.moleculardevices.com, accessed on 10 January 2015). The IC50-values were calculated based on the absorbance signals measured in the negative (i.e., untreated and uninfected cells) and positive (i.e., untreated virus-infected cells) control samples.
The CC50 or 50% cellular cytoxic concentration of compounds was determined from the reduction of viability of uninfected MT-4 cells or PBMCs exposed to the compounds, as measured by the MTS method described above.

HIV-2 ROD = experiment: anti-HIV replication assay, HIV-2 ROD in MT-4 cells (MTS/PES viability readout); type: cell-based; details: Human immunodeficiency virus 2, MT4, 120 h, read-out: IC50 HIV-2
Experimental: as §1
(§3) The HIV-1 strain NL4.3 (X4) and HIV-2 strain ROD (X4/R5) were obtained from the National Institute of Allergy and Infectious Disease AIDS program (Bethesda, MD, USA) and the Medical Research Council (MRC, London, UK), respectively. The HIV-1 strain HE (X4/R5) was originally isolated from a AIDS patient and was routinely cultured in MT-4 cells. The 50% tissue culture infectious doses of the virus stocks were used in the infection assays.
as §2

HIV-1 NL4.3 = experiment: anti-HIV replication assay, HIV-1 NL4.3 in MT-4 cells (MTS/PES viability readout); type: cell-based
Experimental: as §1, §3, §2

[2] = Human immunodeficiency virus 1, MT4, 120 h, read-out: IC50 HIV-1
[3] = Human immunodeficiency virus 1, MT4, read-out: IC50 values, anti-HIV activity

Row | IC50 (HIV-2 ROD; HIV-2 ROD replication in MT-4 cells, five days) | IC50 (HIV-1 NL4.3; Human immunodeficiency virus 1, MT4, 120 h, HIV-1 NL4.3 replication in MT-4 cells, five days, read-out: IC50 HIV-1) | Compound | IC50 (HIV-1) | CC50 at 5 days [1] | IC50 (HIV-2 ROD) | IC50 (HIV-1 NL4.3; [2]) | IC50 (HIV-1 NL4.3; [3])
1 | – | – | CCCCCCCCCCCCCCCC(=O)O[C@@]12C[C@@H](C)[C@@]3(O)[C@@H](C=C(CO)C[C@]4(O)C(=O)C(C)=C[C@@H]34)[C@@H]1C2(C)C [12-deoxyphorbol-13-hexadecanoate] | 0.022 µM | – | – | – | –
2 | 0.0075 ± 0.0005 µM | 0.008 ± 0.002 µM | c1cc(CN2CCCNCCNCCCNCC2)ccc1CN1CCCNCCNCCCNCC1 [AMD3100, reference compound] | – | > 10 µM | – | – | –
3 | – | – | CC(=O)O[C@@]12[C@H](OC(=O)c3ccccc3)[C@@H](C)[C@]3(O)[C@@H]4C=C(C)C(=O)[C@@H]4CC(C)=C[C@H]3[C@@H]1C2(C)C [Compound 1, 13α-Acetyloxy-12β-benzoyloxy-4-epi-4,20-dideoxyphorbol] | – | 42 µM | 9.4 ± 1.4 µM | > 42 µM | –
4 | – | – | CC(=O)O[C@@]12[C@H](OC(=O)c3ccccc3)[C@@H](C)[C@]3(O)[C@@H]4C=C(C)C(=O)[C@H]4CC(C)=C[C@H]3[C@@H]1C2(C)C [Compound 2, 13α-Acetyloxy-12β-benzoyloxy-4,20-dideoxyphorbol] | – | 94 µM | 1.7 ± 1.3 µM | 7.5 ± 0.2 µM | 1.1 to 7.47 µM
5 | – | – | CC1=C[C@H]2[C@@H]3C(C)(C)[C@]3(OC(=O)CC(C)C)[C@H](OC(=O)c3ccccc3)[C@@H](C)[C@]2(O)[C@@H]2C=C(C)C(=O)[C@@H]2C1 [Compound 3, 12β-Benzoyloxy-13α-isovaleryloxy-4-epi-4,20-dideoxyphorbol] | – | 17.6 ± 0.3 µM | > 18 µM | > 18 µM | –
6 | – | – | CC(=O)O[C@@H]1[C@@H](C)[C@]2(O)[C@@H]3C=C(C)C(=O)[C@@H]3CC(C)=C[C@H]2[C@@H]2C(C)(C)[C@]12OC(=O)CC(C)C [Compound 4, 12β-Acetyloxy-13α-isovaleryloxy-4-epi-4,20-dideoxyphorbol] | – | 52 µM | > 52 µM | > 52 µM | –
7 | – | – | CC1=C[C@H]2[C@@H]3C(C)(C)[C@]3(OC(=O)C(C)C)[C@H](OC(=O)c3ccccc3)[C@@H](C)[C@]2(O)[C@@H]2C=C(C)C(=O)[C@@H]2C1 [Compound 5, 12β-benzoyloxy-13α-isobutanoyloxy-4-epi-4,20-dideoxyphforbol] | – | 33.5 ± 0.4 µM | 4.6 ± 2.3 µM | > 34 µM | –
8 | – | – | CC(=O)O[C@@H]1[C@@H](C)[C@]2(O)[C@@H]3C=C(C)C(=O)[C@@H]3CC(C)=C[C@H]2[C@@H]2C(C)(C)[C@]12OC(=O)C(C)C [Compound 6, 12β-acetyloxy-13α-isobutanoyloxy-4-epi-4,20-dideoxyphorbol] | – | 101 µM | > 101 µM | > 101 µM | –
9 | – | – | CC(=O)OCC1=C[C@H]2[C@@H]3C(C)(C)[C@]3(OC(C)=O)[C@H](OC(=O)c3ccccc3)[C@@H](C)[C@]2(O)[C@@H]2C=C(C)C(=O)[C@@H]2C1 [Compound 8, 13α,20-diacetylohy-12β-benzoyloxy-4-epi-4-deoxyphorbol] | – | 20.8 ± 5.6 µM | 1.1 ± 0.8 µM | 3.3 ± 1.8 µM | 1.1 to 7.47 µM
10 | – | – | C[C@H](Cn1cnc2c(N)ncnc21)OCP(=O)(O)O [PMPA, reference compound] | – | > 100 µM | 0.7 ± 0.5 µM | 2.4 ± 0.7 µM | –
11 | – | – | CCCCCCCC(=O)O[C@@]12[C@H](OC(=O)c3ccccc3)[C@@H](C)[C@]3(O)[C@@H]4C=C(C)C(=O)[C@@]4(O)[C@H](O)C(CO)=C[C@H]3[C@@H]1C2(C)C [stelleracin C] | 0.0023 µM | – | – | – | –
